Experimental findings from PubChem BioAssay AID624452 (Sanford-Burnham Center for Chemical Genomics, 2012) are described below.

In this data set the test system is human liver microsomes, compound remaining, LC-MS. Nature of the data set: metabolic stability in human liver microsomes, ADME assay, biochemical, with and without NADPH, LC-MS, set 2 (AID 624452).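 For all read-outs here: compound left measured after 60 min microsomal incubation at 37 °C.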 Conditions: at 1 µM; for percent remaining without NADPH: measured here: stability without NADPH control.

In turn, `COc1ccc(C2c3c(ncn(CCN4CCOCC4)c3=N)Oc3ccc4ccccc4c32)cc1OC` (stereo not drawn) displayed a percent remaining with NADPH of 7.15% and a percent remaining without NADPH of 87.2%.

For `Cc1ccc(C(=O)n2c3ccccc3c3ccccc32)cc1`, the percent remaining with NADPH was 24% and the percent remaining without NADPH is 48.7%.

`COc1ccc(CNCc2cccc3ccccc23)cc1` came in with a percent remaining with NADPH of 0.21% and a percent remaining without NADPH of 70.7%.

Take `CN(C)C1=C(Cl)C(=O)N(c2ccc(Cl)c(Cl)c2)C1=O`: the percent remaining with NADPH is 0.26% and the percent remaining without NADPH was 36.9%.

As to `COc1ccc(Sc2ccc(NC(=O)c3ccccc3Cl)cc2C#N)cc1`, the percent remaining with NADPH was found to be 27.3% and the percent remaining without NADPH was determined as 64.4%.

`CSc1nc(-c2ccc(C)cc2)nc(C(Cl)Cl)n1` displayed a percent remaining with NADPH of 10.8% and a percent remaining without NADPH of 42.1%.

The compound `N#C/C(=C\c1ccc([N+](=O)[O-])o1)c1nc2ccccc2[nH]1` yielded a percent remaining with NADPH of 0.29% and a percent remaining without NADPH of 52.4%.

For `O=C1NCCCc2c1oc1ccc(O)cc21`, the percent remaining with NADPH is 62.1% and the percent remaining without NADPH was 63%.

Compound `N#Cc1ccccc1CSc1nc2ncc(Br)cc2[nH]1` gave a percent remaining with NADPH of 29.7% and a percent remaining without NADPH of 79.3%.

As to `CC1CCCN(C(C(=O)Nc2ccc3c(c2)OCCO3)c2ccccc2)C1` (stereo not drawn), the percent remaining with NADPH amounted to 4.43% and the percent remaining without NADPH is 79.7%.

In turn, `CCCc1nc2c(=O)n(C)c(=O)nc-2n(C)n1` gave a percent remaining with NADPH of 65.6% and a percent remaining without NADPH of 61.5%.

`COc1ccc(S(=O)(=O)n2nc(OC(=O)c3ccccc3)cc2N)cc1` gave a percent remaining with NADPH of 52.9% and a percent remaining without NADPH of 65.4%.

Compound `Cc1ccc(N2CCN(S(=O)(=O)N3CCCCC3)CC2)c(C)c1` had a percent remaining with NADPH of 0.03% and a percent remaining without NADPH of 73.8%.

On to `O=C(CCNS(=O)(=O)c1cccc2nsnc12)N1CCN(c2ccccn2)CC1`, for which the percent remaining with NADPH was 3.36% and the percent remaining without NADPH worked out at 71.8%.

On to `COc1ccc(OC)c(-c2nnc3n2N=C(c2ccc(OC)c(OC)c2)CS3)c1`, for which the percent remaining with NADPH is 5.35% and the percent remaining without NADPH was 79.3%.

Take `CCOc1ccc(NC(=S)N2CCC(C(O)(c3ccccc3)c3ccccc3)CC2)cc1`: the percent remaining with NADPH was 22.7% and the percent remaining without NADPH is 62%.

`Cc1cc(-c2nnc3n2CCCCC3)c(C)n1-c1ccccc1`: the percent remaining with NADPH stood at 25.2% and the percent remaining without NADPH is 74.8%.

In turn, `CCOc1ccc(-c2nc(-c3ccncc3)no2)cc1OCC` came in with a percent remaining with NADPH of 25.1% and a percent remaining without NADPH of 70.3%.

In turn, `CCc1nnc(NC(=O)c2ccc(NS(=O)(=O)c3ccccc3)cc2)s1` showed a percent remaining with NADPH of 69.2% and a percent remaining without NADPH of 76.8%.

On to `O=C1CCCC2=C1C1(CCCC1)N=C(Nc1nc3ccccc3o1)N2`, for which the percent remaining with NADPH came to 11.2% and the percent remaining without NADPH turned out to be 78.1%.

`Cc1cccc(-n2cnc3cc(C(=O)N4CCCCC4)ccc32)c1` showed a percent remaining with NADPH of 37.9% and a percent remaining without NADPH of 70%.

Take `c1ccc2c(Nc3nnc(-c4ccncc4)s3)cccc2c1`: the percent remaining with NADPH came out at 8.76% and the percent remaining without NADPH was 72.1%.

On to `Cc1ccnc(NC(=O)CCCOc2cc(=O)n(C)c3ccccc23)c1`, for which the percent remaining with NADPH was 0.99% and the percent remaining without NADPH was found to be 73.4%.

`Cn1cnc([N+](=O)[O-])c1Sc1ncnc2nc[nH]c12` returned a percent remaining with NADPH of 66.6% and a percent remaining without NADPH of 66.4%.

Turning to `COc1nc(-c2ccccc2)nnc1-c1ccccc1`, the percent remaining with NADPH was 8.41% and the percent remaining without NADPH came to 59.3%.

`O=S(=O)(NC1CCCCC1N1CCOCC1)c1ccc(Cl)cc1` (stereo not drawn) displayed a percent remaining with NADPH of 0.11% and a percent remaining without NADPH of 78.2%.

Take `Cc1ccc(NC(=O)CCC(=O)N/N=C/c2ccc([N+](=O)[O-])o2)cc1C`: the percent remaining with NADPH is 37.5% and the percent remaining without NADPH worked out at 72.6%.

Consider `O=C(O)c1ccc(N2C(=O)/C(=C/c3ccc(-c4ccc([N+](=O)[O-])cc4)o3)C=C2c2ccccc2)cc1`, for which the percent remaining with NADPH was 67.9% and the percent remaining without NADPH stood at 74.3%.

The compound `Cc1cc(C)nc(-n2nc(C)c(Sc3ccc(F)cc3)c2N)n1` displayed a percent remaining with NADPH of 13.4% and a percent remaining without NADPH of 79.4%.

For `Cn1nnnc1Sc1ncnc2scc(-c3ccccc3)c12`, the percent remaining with NADPH stood at 28.1% and the percent remaining without NADPH is 67.5%.

Turning to `Cc1cc2c(s1)c1cnn(Cc3ccccc3F)c(=O)c1n2C`, the percent remaining with NADPH came out at 0.06% and the percent remaining without NADPH came to 64.4%.

For the compound `COc1ccc(S(=O)(=O)N2CCN(S(=O)(=O)c3ccc4c(c3)OCCO4)CC2)cc1`, the percent remaining with NADPH came to 0.64% and the percent remaining without NADPH turned out to be 55.8%.

Compound `COc1ccccc1N(/N=C1\Sc2ccccc2C1=O)C(C)=O` returned a percent remaining with NADPH of 0.32% and a percent remaining without NADPH of 68.5%.

As for `CCCn1ncc(CN2CCCC(C(=O)c3cccc(OC(C)C)c3)C2)c1C` (stereo not drawn), the percent remaining with NADPH was found to be 1.55% and the percent remaining without NADPH worked out at 79.4%.

`Cc1ccc(S(=O)(=O)C(c2ccccc2)c2c(C)noc2C)cc1` (stereo not drawn): the percent remaining with NADPH is 0.08% and the percent remaining without NADPH stood at 69.4%.

As for `CCc1oc2ccccc2c1C(=O)c1cc(Br)c(O)c(Br)c1`, the percent remaining with NADPH was 20.3% and the percent remaining without NADPH was found to be 75.6%.

In turn, `c1ccc(-c2nnc(N3CCOCC3)nc2-c2ccccc2)cc1` registered a percent remaining with NADPH of 31.1% and a percent remaining without NADPH of 79.8%.

In turn, `Cc1ccc(S(=O)(=O)n2c(N)nc3ccccc32)cc1` gave a percent remaining with NADPH of 21% and a percent remaining without NADPH of 79.3%.

`CCCc1cc(C(=O)N(C2CCCCC2)C2CCCCC2)no1` gave a percent remaining with NADPH of 5.27% and a percent remaining without NADPH of 57.6%.

With `Cc1ccc(C)c(OCCn2cc(C(=O)O)c3ccccc32)c1`, the percent remaining with NADPH was 35.8% and the percent remaining without NADPH was found to be 66.7%.

Compound `O=c1[nH]c(SCc2ccc(Cl)cc2)nc2c1CCC2` came in with a percent remaining with NADPH of 12.6% and a percent remaining without NADPH of 78.5%.

Compound `C/C=C/Cn1c(SCCCc2ccccc2)nc2c1c(=O)[nH]c(=O)n2C` came in with a percent remaining with NADPH of 1.64% and a percent remaining without NADPH of 69.3%.

The compound `O=[N+]([O-])c1ccc(CN2CCOCCOCCN(Cc3ccc([N+](=O)[O-])cc3)CCOCC2)cc1` had a percent remaining with NADPH of 0.31% and a percent remaining without NADPH of 72.8%.

Compound `Cc1ccc(S(=O)(=O)NCc2ccc(C(=O)NCCN(Cc3ccccc3)C(C)C)cc2)cc1` gave a percent remaining with NADPH of 0.01% and a percent remaining without NADPH of 80.3%.

Compound `O=S1(=O)Nc2c(ccc3cccnc23)-c2ccccc21` returned a percent remaining with NADPH of 64.4% and a percent remaining without NADPH of 68%.

`Brc1ccc2c(c1)CN1CCCC1=N2` had a percent remaining with NADPH of 56.4% and a percent remaining without NADPH of 77.8%.

`CN(C)c1nc(N)nc(CSc2nnnn2-c2cccc3ccccc23)n1` came in with a percent remaining with NADPH of 0.13% and a percent remaining without NADPH of 77.6%.

For the compound `Cc1nc(SCc2nc3ccccc3[nH]2)c2oc3ccccc3c2n1`, the percent remaining with NADPH turned out to be 0.22% and the percent remaining without NADPH came to 70.5%.

As to `c1ccc(CC2CCN(c3ncnc4sccc34)CC2)cc1`, the percent remaining with NADPH came out at 9.66% and the percent remaining without NADPH is 54.9%.

Compound `CCN1CCN(c2nc3ccccc3nc2C(C#N)C(=O)OC2CCCCC2)CC1` (stereo not drawn) had a percent remaining with NADPH of 14.2% and a percent remaining without NADPH of 80.8%.

The compound `CC(=O)c1ccc(N2CCN(S(=O)(=O)c3ccc4c(c3)CC(=O)N4)CC2)cc1` came in with a percent remaining with NADPH of 49% and a percent remaining without NADPH of 69.8%.

For the compound `O=C1C2CC=CCC2C(=O)N1c1n[nH]c(-c2ccccc2)n1` (stereo not drawn), the percent remaining with NADPH stood at 66.9% and the percent remaining without NADPH turned out to be 71%.

`COc1ccc(OC)c(S(=O)(=O)Nc2cnc3ccccc3c2)c1` registered a percent remaining with NADPH of 25.9% and a percent remaining without NADPH of 71.5%.

Consider `O=C(O)CCC(NS(=O)(=O)c1ccc(-c2ccccc2)cc1)C(=O)O` (stereo not drawn), for which the percent remaining with NADPH was found to be 75.8% and the percent remaining without NADPH turned out to be 74.2%.

Regarding `COC(=O)c1ccccc1NC(=O)c1ccc(F)cc1`, the percent remaining with NADPH amounted to 53.7% and the percent remaining without NADPH was found to be 100%.

With `Cc1ccc(-n2c(N)c(C#N)c(-c3ccccc3)c(C#N)c2=O)cc1`, the percent remaining with NADPH amounted to 64% and the percent remaining without NADPH amounted to 78.9%.

Take `Cc1cc(C(=O)CN2C(=O)CCC2=O)c(C)n1Cc1ccccc1`: the percent remaining with NADPH stood at 34.5% and the percent remaining without NADPH worked out at 72.6%.

Compound `CS(=O)(=O)c1ccc(C(=O)OCC(=O)NC23CC4CC(CC(C4)C2)C3)cc1[N+](=O)[O-]` had a percent remaining with NADPH of 5.75% and a percent remaining without NADPH of 81%.

Compound `O=C(c1ccccn1)N(Cc1cccs1)C1(C(=O)NC2CCCCC2)CCCCC1` registered a percent remaining with NADPH of 0.01% and a percent remaining without NADPH of 70.6%.

Compound `O=C(CSc1cccc2cccnc12)N1CCCC1` yielded a percent remaining with NADPH of 47.2% and a percent remaining without NADPH of 78.5%.

With `Oc1cc(O)cc(/C=C/c2ccc(O)c(O)c2)c1`, the percent remaining with NADPH is 45.9% and the percent remaining without NADPH amounted to 87.6%.

As for `CN(C)c1oc(-c2ccc(OCc3ccc(Cl)cc3)cc2)nc1C#N`, the percent remaining with NADPH is 35.5% and the percent remaining without NADPH was 67.2%.

Consider `O=C(COc1ccccc1Br)NCCc1nc2ccccc2[nH]1`, for which the percent remaining with NADPH was determined as 0.04% and the percent remaining without NADPH came to 79.6%.

Turning to `Cc1ccc(NS(=O)(=O)c2ccc3c(c2)CCC(=O)N3)cc1C`, the percent remaining with NADPH is 6.36% and the percent remaining without NADPH is 66.3%.
